Experiment [1] concerns the target T1, human recombinant histamine H1 receptor (Homo sapiens, UniProt P35367).
T1 construct: expressed in transfected cells; host or cells: CHO cells
Description: Histamine H1 radioligand binding ([3H]Pyrilamine). The following applies: compound at 1 μM; CHO cells; read-out: Histamine Binding (1 μM) H1, percent inhibition of specific binding. How it is done:
To evaluate in radioligand binding assays the activity of compounds of the invention, human recombinant histamine H1 receptor expressed in Chinese hamster ovary (CHO) cells (De Backer, M. D. et al., Biochem. Biophys. Res. Comm. 197(3):1601, 1993) in a modified Tris-HCl buffer (50 mM Tris-HCl, pH 7.4, 2 mM MgCl2, 100 mM NaCl, 250 mM Sucrose) was used. Compounds of the invention were incubated with 1.2 nM [^3H]Pyrilamine for 180 minutes at 25° C. Non-specific binding was estimated in the presence of 1 μM pyrilamine. Receptor proteins were filtered and washed, the filters were then counted to determine [^3H]Pyrilamine specifically bound. Compounds were screened at 1 μM, using 1% DMSO as vehicle. Biochemical assay results are presented as the percent inhibition of specific binding in Table 5.

In experiment [2] the target is T2, human recombinant histamine H2 receptor (Homo sapiens, UniProt P25021).
T2 construct: expressed in transfected cells; host or cells: CHO-K1 cells
T2 sequence (P25021 whole entry): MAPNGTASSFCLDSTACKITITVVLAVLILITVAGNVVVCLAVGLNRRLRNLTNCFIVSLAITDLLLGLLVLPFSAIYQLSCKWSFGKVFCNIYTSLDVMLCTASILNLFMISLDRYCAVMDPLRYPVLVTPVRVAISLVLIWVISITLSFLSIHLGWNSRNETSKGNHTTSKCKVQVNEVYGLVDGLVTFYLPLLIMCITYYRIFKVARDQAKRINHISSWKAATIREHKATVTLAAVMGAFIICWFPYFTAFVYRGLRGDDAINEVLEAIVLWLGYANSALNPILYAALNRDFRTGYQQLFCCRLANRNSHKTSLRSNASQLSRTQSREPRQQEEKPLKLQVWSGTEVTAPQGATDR
Description: Histamine H2 radioligand binding ([125I]aminopotentidine). Conditions: compound at 1 μM; CHO K1 cells; read-out: Histamine Binding (1 μM) H2, percent inhibition of specific binding. The method, then:
To evaluate in radioligand binding assays the activity of compounds of the invention, human recombinant histamine H2 receptor expressed in Chinese hamster ovary (CHO) K1 cells (Ruat, M., Proc. Natl. Acad. Sci. USA. 87(5):1658, 1990) in a 50 mM Phosphate buffer, pH 7.4 was used. Compounds of the invention were incubated with 0.1 nM [^125I]aminopotentidine for 120 minutes at 25° C. Non-specific binding was estimated in the presence of 3 μM Tiotidine. Receptor proteins were filtered and washed, the filters were then counted to determine [^125I]Aminopotentidine specifically bound. Compounds were screened at 1 μM, using 1% DMSO as vehicle. Biochemical assay results are presented as the percent inhibition of specific binding in Table 5.

The target of experiment [3] is T3, human recombinant adrenergic α1D receptor (Homo sapiens, UniProt P25100).
T3 construct: expressed in transfected cells; host or cells: HEK-293 cells
T3 sequence (P25100 1-572): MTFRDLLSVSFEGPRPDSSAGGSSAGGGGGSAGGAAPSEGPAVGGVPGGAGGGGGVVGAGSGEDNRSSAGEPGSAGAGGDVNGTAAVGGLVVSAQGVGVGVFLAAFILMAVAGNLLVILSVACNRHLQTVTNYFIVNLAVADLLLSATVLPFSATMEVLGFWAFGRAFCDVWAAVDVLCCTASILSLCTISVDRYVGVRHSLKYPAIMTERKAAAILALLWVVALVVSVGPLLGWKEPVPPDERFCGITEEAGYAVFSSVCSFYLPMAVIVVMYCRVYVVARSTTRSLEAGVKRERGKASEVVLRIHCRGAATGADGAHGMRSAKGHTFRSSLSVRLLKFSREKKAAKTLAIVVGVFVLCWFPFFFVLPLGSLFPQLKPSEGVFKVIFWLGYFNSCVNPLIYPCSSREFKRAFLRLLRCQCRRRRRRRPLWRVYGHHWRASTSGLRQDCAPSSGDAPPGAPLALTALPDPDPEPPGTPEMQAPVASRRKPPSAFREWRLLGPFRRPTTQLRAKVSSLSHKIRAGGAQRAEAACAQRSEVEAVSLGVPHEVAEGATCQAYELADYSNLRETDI
Description: Adrenergic α1D radioligand binding ([3H]Prozosin). Conditions: compound at 1 μM; HEK-293 cells; read-out: Adrenergic (1 μM) α1D, percent inhibition of specific binding. The method, then: To evaluate in radioligand binding assays the activity of compounds of the invention, human recombinant adrenergic α1D receptor expressed in human embryonic kidney (HEK-293) cells (Kenny, B. A. et al. Br. J. Pharmacol. 115(6):981, 1995) in a 50 mM Tris-HCl buffer, pH 7.4, was used. Compounds of invention were incubated with 0.6 nM [^3H]Prozosin for 60 minutes at 25° C. Non-specific binding was estimated in the presence of 10 μM phentolamine. Receptor proteins were filtered and washed, the filters were then counted to determine [^3H]Prozosin specifically bound. Compounds were screened at 1 μM or lower, using 1% DMSO as vehicle. Biochemical assay results are presented as the percent inhibition of specific binding in Table 6.

The target in experiment [4] is T4, human recombinant serotonin (5-Hydroxytryptamine) 5-HT2C receptor (Homo sapiens, UniProt P28335).
T4 construct: expressed in transfected cells; host or cells: CHO-K1 cells
T4 sequence (P28335 33-458): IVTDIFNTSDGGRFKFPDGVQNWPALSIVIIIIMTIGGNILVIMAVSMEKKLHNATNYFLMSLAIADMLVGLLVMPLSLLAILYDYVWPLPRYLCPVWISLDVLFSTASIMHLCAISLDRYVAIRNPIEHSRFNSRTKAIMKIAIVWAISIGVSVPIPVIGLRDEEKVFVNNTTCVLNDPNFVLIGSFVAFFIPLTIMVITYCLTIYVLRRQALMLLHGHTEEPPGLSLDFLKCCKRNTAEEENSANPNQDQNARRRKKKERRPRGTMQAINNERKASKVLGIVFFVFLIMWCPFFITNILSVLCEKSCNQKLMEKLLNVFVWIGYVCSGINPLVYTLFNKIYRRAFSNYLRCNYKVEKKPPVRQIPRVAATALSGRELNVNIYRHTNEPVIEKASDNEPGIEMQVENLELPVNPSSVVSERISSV
The experiment can be described thus: Serotonin 5-HT2C radioligand binding ([3H]Mesulergine). Conditions: compound at 1 μM; CHO-K1 cells; read-out: Serotonin (1 μM) 5-HT2C, percent inhibition of specific binding. The method, then: To evaluate in radioligand binding assays the activity of compounds of the invention, human recombinant serotonin (5-Hydroxytryptamine) 5-HT2C receptor expressed in Chinese hamster ovary (CHO-K1) cells (Wolf, W. A. and Schutz, J. S., J. Neurochem. 69:1449, 1997) in a modified Tris-HCl buffer (50 mM Tris-HCl, pH 7.4, 0.1% Ascorbic Acid, 10 μM Pargyline) was used. Compounds of the invention were incubated with 1 nM [^3H]Mesulergine for 60 minutes at 25° C. Non-specific binding was estimated in the presence of 1 μM Mianserin. Receptor proteins were filtered and washed, the filters were then counted to determine [^3H]Mesulergine specifically bound. Compounds were screened at 1 μM or lower, using 1% DMSO as vehicle. Biochemical assay results are presented as the percent inhibition of specific binding in Table 7.

T1 sequence (P35367 whole entry): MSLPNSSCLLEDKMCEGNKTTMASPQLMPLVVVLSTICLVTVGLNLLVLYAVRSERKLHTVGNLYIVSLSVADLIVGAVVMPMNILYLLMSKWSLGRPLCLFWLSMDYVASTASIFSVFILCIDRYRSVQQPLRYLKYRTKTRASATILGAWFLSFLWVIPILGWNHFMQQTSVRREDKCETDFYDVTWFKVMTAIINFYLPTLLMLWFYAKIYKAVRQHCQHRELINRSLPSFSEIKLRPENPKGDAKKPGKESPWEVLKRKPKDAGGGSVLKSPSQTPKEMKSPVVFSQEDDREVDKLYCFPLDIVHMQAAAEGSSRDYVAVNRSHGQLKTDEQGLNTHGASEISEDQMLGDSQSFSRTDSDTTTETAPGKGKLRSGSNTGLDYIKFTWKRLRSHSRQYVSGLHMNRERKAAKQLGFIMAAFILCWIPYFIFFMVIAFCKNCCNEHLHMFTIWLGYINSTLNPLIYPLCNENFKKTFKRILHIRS

The term inhibition denotes the change of the read-out against control, counted positive when it falls. For the molecule `Cc1ccc2c(c1)c1c(n2CCNC(=O)c2ccc(F)cc2)CCN(C)C1` [Compound 66, 4-fluoro-N-(2-(1,2,3,4-tetrahydro-2,8-dimethylpyrido[4,3-b]indol-5-yl)ethyl)benzamide], the inhibition at 1 µM worked out at 66% in experiment [1], 49% in experiment [2], 76% in experiment [3] and 93% in experiment [4].

As for `CN1CCc2c(c3cc(Cl)ccc3n2CC(=O)OC(C)(C)C)C1` [Compound 12, tert-butyl 2-(8-chloro-1,2,3,4-tetrahydro-2-methylpyrido[4,3-b]indol-5-yl)acetate], the inhibition at 1 µM in experiment [1] turned out to be 101%; in experiment [2], 40%; in experiment [3] it was 13%; in experiment [4] it was 83%.

For `Cc1ccc2c(c1)c1c(n2CCC(=O)O)CCN(C)C1` [CD47, 3-(1,2,3,4-tetrahydro-2,8-dimethylpyrido[4,3-b]indol-5-yl)propanoic acid], the inhibition at 1 µM in experiment [1] was found to be 25%; in experiment [2] it was 16%; in experiment [3], 6%; in experiment [4], 25%.

Turning to `CN1CCc2c(c3cc(Cl)ccc3n2CC(=O)OC2CCCC2)C1` [Compound 15], the inhibition at 1 µM is 99% in experiment [1], 47% in experiment [2], 58% in experiment [3] and 94% in experiment [4].

With `CN1CCc2c(c3cc(Cl)ccc3n2CCC(=O)O)C1` [CD55, 3-(8-chloro-1,2,3,4-tetrahydro-2-methylpyrido[4,3-b]indol-5-yl)propanoic acid], the inhibition at 1 µM in experiment [1] is 22%; in experiment [2], -2%; in experiment [3] it was 14%; in experiment [4] it was 11%.

As to `C#CCn1c2c(c3cc(C)ccc31)CN(C)CC2` [CD73, 2,8-dimethyl-5-(prop-2-ynyl)-2,3,4,5-tetrahydro-1H-pyrido[4,3-b]indole], the inhibition at 1 µM in experiment [1] is 96%; in experiment [2], 19%; in experiment [3] it was 57%; in experiment [4], 92%.

On to `CN1CCc2c(c3cc(Cl)ccc3n2CCC(=O)OC2CCCC2)C1` [Compound 21, cyclopentyl 3-(8-chloro-1,2,3,4-tetrahydro-2-methylpyrido[4,3-b]indol-5-yl)propanoate], for which the inhibition at 1 µM was 98% in experiment [1], 82% in experiment [2], 88% in experiment [3] and 100% in experiment [4].

For `Cc1ccc2c(c1)c1c(n2CC(N)=O)CCN(C)C1` [Compound 64, 2-(1,2,3,4-tetrahydro-2,8-dimethylpyrido[4,3-b]indol-5-yl)acetamide], the inhibition at 1 µM in experiment [1] was 62%; in experiment [2], -3%; in experiment [3], 20%; in experiment [4], 45%.

With `CN1CCc2c(c3cc(Cl)ccc3n2CCC#N)C1` [CD94, 3-(8-chloro-2-methyl-3,4-dihydro-1H-pyrido[4,3-b]indol-5(2H)-yl)propanenitrile], the inhibition at 1 µM in experiment [1] was 97%; in experiment [2], 2%; in experiment [3], 74%; in experiment [4] it was 71%.

As for `Cc1ccc2c(c1)c1c(n2CCC(=O)NC(C)(C)C)CCN(C)C1` [Compound 28], the inhibition at 1 µM in experiment [1] is 21%; in experiment [2], 18%; in experiment [3] it was 58%; in experiment [4] it was 35%.

Take `CCNC(=O)CCCn1c2c(c3cc(C)ccc31)CN(C)CC2` [Compound 6, N-ethyl-4-(1,2,3,4-tetrahydro-2,8-dimethylpyrido[4,3-b]indol-5-yl)butanamide]: the inhibition at 1 µM was 46% in experiment [1], 0% in experiment [2], 0% in experiment [3] and 45% in experiment [4].

For the origin of these results see US9115137B2, “2,3,4,5-tetrahydro-1H-pyrido[4,3-B]indole compounds and methods of use thereof” (priority 2008, dated 2015).
